Measured values from US8597903B2, “Biotinidase assay” (Wallac Oy, priority 2009, dated 2013).

Legend:
[1] = target: T1, biotinidase (Homo sapiens, UniProt P43251); test: Heterogenous biotinidase assay (DELFIA); type: biochemical; details: 10 nM substrate, blood spots, +37° C. for 2 hours, Eu signal by time-resolved fluorometer (FIG. 1-3)
T1 construct: The blood spots (diameter 3.2 mm) were punched to the wells; from tissue; host or cells: dried blood spots (whole blood)
T1 sequence (P43251 22-523): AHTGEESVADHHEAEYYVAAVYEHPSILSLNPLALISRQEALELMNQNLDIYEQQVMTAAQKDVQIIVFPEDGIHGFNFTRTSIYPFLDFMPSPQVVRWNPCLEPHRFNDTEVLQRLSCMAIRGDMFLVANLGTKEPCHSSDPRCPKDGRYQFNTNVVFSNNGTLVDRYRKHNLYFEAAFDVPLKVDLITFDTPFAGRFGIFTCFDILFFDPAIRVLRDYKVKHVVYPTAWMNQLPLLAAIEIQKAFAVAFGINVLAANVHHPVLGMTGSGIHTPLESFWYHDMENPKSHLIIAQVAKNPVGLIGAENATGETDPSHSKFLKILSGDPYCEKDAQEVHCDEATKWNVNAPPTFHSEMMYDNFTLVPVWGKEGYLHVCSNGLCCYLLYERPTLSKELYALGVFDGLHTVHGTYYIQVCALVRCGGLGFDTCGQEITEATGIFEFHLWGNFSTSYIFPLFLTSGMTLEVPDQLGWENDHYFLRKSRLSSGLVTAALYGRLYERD
Protocol: A heterogenous assay is based on the use of streptavidin-specific antibody, streptavidin and biotinidase substrates (compounds 3, 5 and 7). Accordingly, 200 μA of anti-streptavidin antibody (1 μg per well, Novus Biologicals cat. No. NB200-448) was pipetted to the wells of the microplate in coating buffer (50 mM TRIS pH 7.4+50 mM NaCl). The plate was incubated at RT for 3 h. After that the plate was washed 2 times with Delfia Wash solution. The blood spots (diameter 3.2 mm) were punched to the wells. 10 nM of biotinidase substrate was added to the wells in reaction buffer (50 mM MES pH 6, 0.05% BSA, 0.01% TWEEN, 50 mM NaCl). The plate was incubated with slow shaking at +37° C. for 2 hours. 100 μA 20 nM streptavidin in reaction buffer was added into the wells. The plate was incubated for 1 hour at RT with slow shaking. The plate was washed for 4 times with Delfia Wash solution. 200 μA of Delfia Inducer was added to the wells and incubated for 15 minutes at RT. The Eu signal was measured with a time-resolved fluorometer. The more there is biotinidase enzyme in the sample the lower the Eu signal is.

[2] = Storage stability of the substrate; type: physicochemical; details: prolonged storage at ambient temperature
Protocol: Biocytin (8, 5 mg, 13 μmol) and the isothiocyanate chelate 9 (23 mg, 33 μmol) synthesized as disclosed in U.S. Pat. No. 4,920,195, were dissolved in the mixture of pyridine, water and triethylamine (9:1.5:01, v/v/v; 250 μL) and the mixture was stirred overnight at rt. The product was isolated by precipitation with acetone and purified with HPLC. Compound 10: ESI-TOF MS found, 1047.13; calcd for C40H46EuN8O12S^−1047.18.

| stability on storage [2] | Compound | function as a substrate for the enzyme in a biotinidase assay [1] |
| --- | --- | --- |
| – | O=C(O)CN(CCN(CC(=O)O)CC(Cc1ccc(NC(=O)CCCCCNC(=O)CCCCC2SCC3NC(=O)NC32)cc1)N(CC(=O)O)CC(=O)O)CC(=O)O (stereo not drawn) [Compound 5] | functions as a favorable substrate |
| prone to Edman degradation | O=C(O)CN(CC(=O)O)Cc1cc(C#Cc2ccc(NC(=S)NC(CCCCNC(=O)CCCCC3SCC4NC(=O)NC43)C(=O)O)cc2)cc(CN(CC(=O)O)CC(=O)O)n1 (stereo not drawn) [Compound 10] | – |
| – | O=C(O)CN(CCN(CC(=O)O)CC(Cc1ccc(NC(=O)CCCCC2SCC3NC(=O)NC32)cc1)N(CC(=O)O)CC(=O)O)CC(=O)O (stereo not drawn) [Compound 3] | does not function as a substrate |
